The results in this text go back to patent US20230172204A1 (BASF SE, priority 2020, published 2023).

Assay [1] relates to Phakopsora pachyrhizi (F129L). The assay is described as follows: Protective control of soybean rust on soybeans (PHAKPA P2). It counts as in vivo. Conditions: for % PHAKPA (F129L) Disease level P2 at 4 ppm: protective P2, 4 ppm; for % PHAKPA (F129L) Disease level P2 at 4 ppm / % PHAKPA (F129L) Disease level P2 at 16 ppm: soybean rust F129L; for % PHAKPA (F129L) Disease level P2 at 16 ppm: protective P2, 16 ppm.

For assay [2], the system named is Phakopsora pachyrhizi (F129L). As to the kind of experiment: Protective control of soybean rust on soybeans (PHAKPA P6). In kind it is in vivo. To be noted: for % PHAKPA (F129L) Disease level P6 at 4 ppm: protective P6, 4 ppm; for % PHAKPA (F129L) Disease level P6 at 4 ppm / % PHAKPA (F129L) Disease level P6 at 16 ppm: soybean rust F129L; for % PHAKPA (F129L) Disease level P6 at 16 ppm: protective P6, 16 ppm.

The mark [3] stands for this setting: P2 protective, % diseased leaf area.
Where [4] appears, read: P6 protective, % diseased leaf area.

On to `CNC(=O)/C(=N/OC)c1cccc(C)c1CO/N=C(\C)c1cc(Cl)cc(Cl)c1` [Ex. 4, (2E)-2-[2-[[(E)-1-(3,5-dichlorophenyl)ethylideneamino]oxymethyl]-3-methyl-phenyl]-2-methoxyimino-N-methyl-acetamide], for which the “PHAKPA (F129L) Disease level (%) P2 at 4 ppm” value in assay [1] (setting [3]) is given as 2%. In assay [1], the “% PHAKPA (F129L) Disease level P2 at 4 ppm” value is listed as 2% and the “% PHAKPA (F129L) Disease level P2 at 16 ppm” value was found to be 0%. For the same molecule, the “PHAKPA (F129L) Disease level (%) P6 at 4 ppm” value in assay [2] (setting [4]) was 17%. In assay [2], the “% PHAKPA (F129L) Disease level P6 at 4 ppm” value worked out at 13% and the “% PHAKPA (F129L) Disease level P6 at 16 ppm” value came out at 1%.
With `CO/N=C(/C(=O)OC)c1cccc(C)c1CO/N=C(\C)c1c(F)cccc1F` [compound 213], in assay [1], the “% PHAKPA (F129L) Disease level P2 at 4 ppm” value is 50% and the “% PHAKPA (F129L) Disease level P2 at 16 ppm” value is 3%. In addition, in assay [2], the “% PHAKPA (F129L) Disease level P6 at 4 ppm” value amounted to 40% and the “% PHAKPA (F129L) Disease level P6 at 16 ppm” value turned out to be 11%.
For the molecule `CNC(=O)/C(=N/OC)c1cccc(C)c1CO/N=C(\C)c1ccccc1` [Ex. 31], in assay [1] (setting [3]), the “PHAKPA (F129L) Disease level (%) P2 at 4 ppm” value worked out at 0%. In assay [1], the “% PHAKPA (F129L) Disease level P2 at 4 ppm” value was determined as 0% and the “% PHAKPA (F129L) Disease level P2 at 16 ppm” value worked out at 0%. Moreover, the “PHAKPA (F129L) Disease level (%) P6 at 4 ppm” value in assay [2] (setting [4]) stood at 12%. Moreover, in assay [2], the “% PHAKPA (F129L) Disease level P6 at 4 ppm” value stood at 4% and the “% PHAKPA (F129L) Disease level P6 at 16 ppm” value stood at 0%.
As to `C#Cc1ccccc1/C(C)=N/OCc1c(C)cccc1/C(=N\OC)C(=O)OC` [compound 122], in assay [1], the “% PHAKPA (F129L) Disease level P2 at 4 ppm” value is given as 100% and the “% PHAKPA (F129L) Disease level P2 at 16 ppm” value is 73%. Moreover, in assay [2], the “% PHAKPA (F129L) Disease level P6 at 4 ppm” value stood at 93% and the “% PHAKPA (F129L) Disease level P6 at 16 ppm” value is 90%.
The matching figures for `CNC(=O)/C(=N/OC)c1cccc(C)c1CO/N=C(\C)c1ccc(Cl)c(F)c1CC(F)(F)F` [compound 412]: 47%, 6%, 40% and 6%.
Turning to `CNC(=O)/C(=N/OC)c1cccc(C(F)F)c1CO/N=C(\C)c1cccc(C(F)(F)F)c1` [Ex. 23], in assay [1], the “% PHAKPA (F129L) Disease level P2 at 4 ppm” value is listed as 12% and the “% PHAKPA (F129L) Disease level P2 at 16 ppm” value is recorded as 1%. Also, in assay [2], the “% PHAKPA (F129L) Disease level P6 at 4 ppm” value stood at 20% and the “% PHAKPA (F129L) Disease level P6 at 16 ppm” value stood at 1%.
Turning to `CNC(=O)/C(=N/OC)c1ccccc1CO/N=C(\C)c1ccc(C#N)cc1` [reference compound], in assay [1] (P2 protective, 16 ppm, % diseased leaf area), the “PHAKPA (F129L) Disease level (%) P2 at 16 ppm” value was 37%. Also, the “PHAKPA (F129L) Disease level (%) P6 at 16 ppm” value in assay [2] (P6 protective, 16 ppm, % diseased leaf area) came to 63%.
Regarding `CNC(=O)/C(=N/OC)c1cccc(C)c1CO/N=C(\C)c1c(F)cc(Br)cc1OC(F)(F)F` [compound 355], in assay [1], the “% PHAKPA (F129L) Disease level P2 at 4 ppm” value worked out at 34% and the “% PHAKPA (F129L) Disease level P2 at 16 ppm” value is on record as 7%. For the same molecule, in assay [2], the “% PHAKPA (F129L) Disease level P6 at 4 ppm” value worked out at 48% and the “% PHAKPA (F129L) Disease level P6 at 16 ppm” value is recorded as 4%.
Consider `CCc1cc(/C(C)=N/OCc2c(C)cccc2/C(=N\OC)C(=O)NC)cc(C(F)(F)F)c1` [compound 151], for which, in assay [1], the “% PHAKPA (F129L) Disease level P2 at 4 ppm” value turned out to be 37% and the “% PHAKPA (F129L) Disease level P2 at 16 ppm” value came to 3%. Further, in assay [2], the “% PHAKPA (F129L) Disease level P6 at 4 ppm” value worked out at 53% and the “% PHAKPA (F129L) Disease level P6 at 16 ppm” value came out at 6%.
Turning to `COC=C(C(=O)OC)c1cccc(C)c1CON=C(C)c1ccc(OC(F)(F)F)cc1Cl` [compound 463], in assay [1], the “% PHAKPA (F129L) Disease level P2 at 4 ppm” value is listed as 6% and the “% PHAKPA (F129L) Disease level P2 at 16 ppm” value is 0%. In assay [2], the “% PHAKPA (F129L) Disease level P6 at 4 ppm” value amounted to 3% and the “% PHAKPA (F129L) Disease level P6 at 16 ppm” value is on record as 0%.
As for `CNC(=O)/C(=N/OC)c1cccc(C)c1CO/N=C(\C)c1cccc(/C(C)=N/OC)c1` [Ex. 15], in assay [1], the “% PHAKPA (F129L) Disease level P2 at 4 ppm” value was determined as 4% and the “% PHAKPA (F129L) Disease level P2 at 16 ppm” value is listed as 0%. Also, in assay [2], the “% PHAKPA (F129L) Disease level P6 at 4 ppm” value was 24% and the “% PHAKPA (F129L) Disease level P6 at 16 ppm” value worked out at 1%.
